Measured values as given in US8834858B2, “Treatment for dyslipidemia” (Solvotrin Therapeutics Ltd., priority 2011, dated 2014).
“Also recorded” adds a separate entry of the source. Read-outs that look alike come from different tables or passages of the source.

Tests used:
TG, LDL, HDL = conditions: atorvastatin 10 mg/day, Slo-Niacin to 1500 mg/day, 3-month segments; cited from earlier work
[1] = test system: LDL cholesterol, HDL cholesterol, TG; conditions: adult dyslipidemias; cited from earlier work
[2] = Incubation with rabbit intestinal preparation; format: in vitro ADME
[3] = Hydrolysis of ST0702 in 50% human plasma; format: in vitro ADME; conditions: 50% human plasma diluted with pH 7.4 buffer, 37° C.
Procedure: FIG. 1 depicts a progress curve for the disappearance of isosorbide-2-aspirinate-5-nicotinate (ST0702) following incubation (in vitro) in 50% human plasma diluted with pH 7.4 buffer at 37° C.
A Waters Spherisorb® (4 μm) C18 3.9×250 mm column was used for the plasma and enzyme study samples. The enzyme and plasma study samples were analysed using a gradient method employing a mobile phase consisting of pH 3.19 phosphate buffer:acetonitrile 90:10 grading to 10:90 over the first ten minutes then back to 65:35 to 12 minutes and grading to 90:10 to 17 minutes at which it was held to 30 minutes. The eluent in both methods was monitored at 230 nm and peak identity and homogeneity confirmed by PDA analysis. Quantitation was performed by comparison of peak areas with external standards run under the same conditions at about the same concentration. The flow rate was 1 ml/min.
For the hydrolysis experiments pooled plasma or serum solutions (4 ml) were prepared by centrifugation of citrated human venous blood and dilution with pH 7.4 phosphate buffer as appropriate. Whole blood was used undiluted. […] 20 μl aliquots of the supernatant were analysed by HPLC. Hydrolysis was monitored until consumption of the parent ester. […] Cholinesterase activity of plasma, serum and whole blood was evaluated using the Ellman approach with butyryl thiocholine as substrate. […]

[4] = Incubation with rat intestinal preparation; format: in vitro ADME
[5] = Incubation in diluted human intestinal contents; format: in vitro ADME; conditions: prolonged period
From the text: (§1) Hydrolysis kinetics of isosorbide diaspirinate,” Eur. J. Pharm. Sciences 16 2002 297-304.

[6] = Incubation with pig intestinal S9 fraction; format: in vitro ADME
Procedure: FIG. 2 depicts a progress curve for the disappearance of ST0702 following incubation with pig intestinal S9 fraction.
as §1

[7] = test system: LDL cholesterol, Apolipoprotein B, TGs; assay: NHP crossover study: clinical chemistry (LDL-C, ApoB, TG)
Procedure: (§3) The primary study endpoint is change in plasma LDL cholesterol and Apolipoprotein B at 48 hours. An aliquot of 300 μL of serum transferred to a cryovial and was immediately placed in a freezer set to maintain −70° C. until analyzed for clinical chemistry (LDL cholesterol, Apolipoprotein B, TGs, glucose) using a standard Roche Analyser.

[8] = Incubation with mouse intestinal preparation; format: in vitro ADME
thromboxane B2 (TxB2) = assay: NHP crossover study: ex-vivo serum TxB2; format: in vivo, cynomolgus monkeys
Procedure: (§2) For TxB2, an additional 0.4 mL whole blood aliquots were placed in siliconised glass tubes to induce a clotting response and the supernatants were analysed for TxB2 using a Luminex ELISA immunoassay. PGD2 was analysed from serum directly using a Luminex ELISA immunoassay.

[9] = Incubation with microsomes from the human intestinal wall; format: in vitro ADME
Procedure: FIG. 7 depicts a progress curve following incubation of ST0702 in the presence of microsomes from the human intestinal wall.
as §1

prostaglandin D2 (PGD2) = assay: NHP crossover study: serum PGD2; format: in vivo, cynomolgus monkeys
Procedure: as §2

serum glucose = assay: NHP crossover study: serum glucose
Procedure: as §3

[10] = pH 7.4
Procedure: Microsomes from human hepatocytes (post mortem tissue) were diluted with pH 7.4 buffer and the suspension warmed to 37° C. ST0702 was introduced and samples withdrawn at successive time intervals.
Hydrolysis kinetics of isosorbide diaspirinate,” Eur. J. Pharm.

[11] = Stomach irritation on administration of compound I; format: in vivo; conditions: statement in description; test not named
Procedure: Therefore, stomach irritation is not observed with the administration of isosorbide-2-acetylsalicylate-5-nicotinic acid (I). […] In some embodiments, the present invention provides a composition comprising isosorbide-2-acetylsalicylate-5-nicotinic acid (I) wherein the composition protects the gastrointestinal mucosa from irritation and inflammation.
Ulcerogenic effects of aspirin and aspirin pro-drugs ST0701, ST0702, and ST0703 were determined in rabbits using the following procedure. Healthy female rabbits (n=2 per group) were dosed (by oral gavage) for 3 consecutive days with 30 mg/kg of aspirin or the molar equivalent of ST0702 and the other pro drugs. Four hours post-dose on the final day, the rabbits were euthanized using an overdose of pentobarbitone and their stomachs and small intestine removed, washed with physiological saline, opened along the greater curvature and examined. The area (square millimeters) of both non-haemorrhagic and haemorrhagic lesions developed in the stomach/intestines were measured with a square grid under a dissecting microscope.

[12] = Incubation in human gastric juice; format: in vitro ADME; conditions: over 60 minutes
From the text: as §1

[13] = cited from earlier work
[14] = cited from earlier work; remark: listed apart in the source
[15] = cited from earlier work; remark: listed apart in the source
[16] = cited from earlier work; remark: listed apart in the source
PGD2 receptor-1 (DP1) = PGD2 receptor-1 (DP1) (Homo sapiens, UniProt Q13258); conditions: cited from earlier work; for reduction of flushing associated with 1.5 g ER nicotinic acid: single dose study
[17] = test system: fasting glucose, glycated albumin, TG, total cholesterol; conditions: cited from earlier work; for fall in fasting glucose levels: two weeks
HbA1c = conditions: cited from earlier work
[18] = test system: fasting glucose, glycated albumin; conditions: 4.0 g, one month; cited from earlier work
[19] = baseline to 48 hours, 28 mg/kg niacin equivalents daily oral gavage, n=6
[20] = high risk patients (secondary prevention)

Chain of PGD2 receptor-1 (DP1) (Q13258 whole entry): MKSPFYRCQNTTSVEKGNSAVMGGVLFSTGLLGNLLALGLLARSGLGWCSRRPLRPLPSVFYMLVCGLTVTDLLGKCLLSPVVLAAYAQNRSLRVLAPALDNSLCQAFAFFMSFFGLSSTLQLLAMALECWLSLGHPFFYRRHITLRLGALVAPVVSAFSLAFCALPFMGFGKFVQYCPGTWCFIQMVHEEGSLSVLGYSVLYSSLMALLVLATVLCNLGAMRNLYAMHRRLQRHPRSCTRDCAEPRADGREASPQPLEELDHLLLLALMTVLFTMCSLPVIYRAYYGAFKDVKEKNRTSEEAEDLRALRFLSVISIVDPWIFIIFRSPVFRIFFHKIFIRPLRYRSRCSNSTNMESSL

Question: Which HDL (TG, LDL, HDL) does the source give for `CC(C)c1c(C(=O)Nc2ccccc2)c(-c2ccccc2)c(-c2ccc(F)cc2)n1CC[C@@H](O)C[C@@H](O)CC(=O)O` [Atorvastatin] here?
Answer: +6%

Question: And the LDL (TG, LDL, HDL)?
Answer: −36%

Question: What about the TG (TG, LDL, HDL) of the same compound?
Answer: −26%

Question: For `O=C1[C@H](CC[C@H](O)c2ccc(F)cc2)[C@@H](c2ccc(O)cc2)N1c1ccc(F)cc1` [Ezetimibe], which HDL cholesterol [1] is on record?
Answer: +3%

Question: What about the LDL cholesterol [1] of the same compound?
Answer: −18 to −24%

Question: What about the TG [1] of the same compound?
Answer: No change

Question: With `CC(=O)Oc1ccccc1C(=O)O[C@H]1CO[C@H]2[C@@H]1OC[C@H]2OC(=O)c1cccnc1` [ST0702, isosorbide-2-aspirinate-5-nicotinate] as the compound, how does the “aspirin production from ST0702” value [2] read?
Answer: do not produce aspirin

Question: And the “disappearance of ST0702 / conversion to hydrolysis products” value [3]?
Answer: rapid conversion to a series of hydrolysis products

Question: What about the “aspirin production from ST0702” value [4] of the same compound?
Answer: do not produce aspirin

Question: What about the “stability in human intestinal contents” value [5] of the same compound?
Answer: effectively unchanged

Question: What about the “aspirin production from ST0702” value [6] of the same compound?
Answer: do not produce aspirin

Question: And the “TG levels at 48 hours (follow up)” value ([7]; 48 hours)?
Answer: 55 ± 24 mg/dL

Question: What about the “TG levels at baseline” value ([7]; baseline) of the same compound?
Answer: 59 ± 29 mg/dL

Question: What about the “increase in TG levels (non-significant)” value ([7]; baseline to 48 hours) of the same compound?
Answer: 4.4%

Question: And the “reduction from baseline in LDL cholesterol” value [7, 19]?
Answer: 53%

Question: And the “reduction from baseline in apolipoprotein B” value [7, 19]?
Answer: 42%

Question: What about the “aspirin production from ST0702” value [8] of the same compound?
Answer: do not produce aspirin

Question: What about the “serum TxB2 suppression” value (thromboxane B2 (TxB2); at 24 and 48 hours) of the same compound?
Answer: > 95%

Question: And the “serum TxB2 levels” value (thromboxane B2 (TxB2); from 15 minutes on, within group and vs niacin)?
Answer: significantly reduced

Question: What about the “hydrolysis pattern in human intestinal wall microsomes” value [9] of the same compound?
Answer: hydrolysis predominantly at the isosorbide-2-position liberating aspirin and isosorbide-5-nicotinate

Question: What about the “reduction in PGD2 AUC levels compared to nicotinic acid” value (prostaglandin D2 (PGD2); over 24 hours) of the same compound?
Answer: 8 fold

Question: What about the “PGD2 AUC” value (prostaglandin D2 (PGD2); over 24 hours post dosing, equimolar doses) of the same compound?
Answer: 16.2 ± 6.4 ng·h/mL

Question: What about the “serum glucose change from baseline” value (serum glucose; 1 hour post dose) of the same compound?
Answer: significant decrease

Question: What about the “plasma glucose versus baseline” value (serum glucose; 4 hours post dose) of the same compound?
Answer: remained below baseline levels; also recorded: significant reduction

Question: And the “hydrolysis pattern in human liver microsomes” value [10]?
Answer: more significant direct hydrolysis at position 5 leading to direct nicotinic acid production

Question: And the stomach irritation [11]?
Answer: not observed

Question: And the “metabolism in human gastric juice” value [12]?
Answer: not metabolized

Question: For `CC(=O)Oc1ccccc1C(=O)O` [aspirin], which “Lowest effective daily dose” value ([13]; Acute MI) is on record?
Answer: 160 mg

Question: What about the “Lowest effective daily dose” value ([13]; Acute ischaemic stroke) of the same compound?
Answer: 160 mg

Question: What about the “Lowest effective daily dose” value ([13]; Hypertension) of the same compound?
Answer: 75 mg

Question: And the “Lowest effective daily dose” value ([13]; Men at high CV risk)?
Answer: 75 mg

Question: What about the “Lowest effective daily dose” value ([13]; Polycythemia) of the same compound?
Answer: 100 mg

Question: What about the “Lowest effective daily dose” value ([13]; Severe carotid artery stenosis) of the same compound?
Answer: 75 mg

Question: What about the “Lowest effective daily dose” value ([13]; Stable angina) of the same compound?
Answer: 75 mg

Question: And the “Lowest effective daily dose” value ([13]; TIA and ischaemic stroke)?
Answer: 50 mg

Question: And the “Lowest effective daily dose” value ([13]; Unstable angina)?
Answer: 75 mg

Question: What about the “effect on flushing symptoms” value ([14]; 325 mg, 30-60 minutes before IR nicotinic acid) of the same compound?
Answer: attenuated flushing symptoms

Question: And the “patients with moderate or greater flushing” value ([14]; first week of treatment, with vs without aspirin)?
Answer: 15%

Question: What about the flushing-specific discontinuation rate ([14]; four week study, 325 mg aspirin before ER nicotinic acid vs no aspirin) of the same compound?
Answer: 1.8%

Question: What about the “reduction of the incidence of flushing” value ([14]; pre-treatment with aspirin) of the same compound?
Answer: 18%

Question: And the “mean rate of treatment discontinuation because of nicotinic acid flushing” value ([14]; with adjunctive aspirin)?
Answer: approximately 6.5%

Question: What about the “patients with at least occult bleeding” value ([15]; daily aspirin use even at low doses) of the same compound?
Answer: More than 75%

Question: What about the “absolute annual increased risk of major bleeding episodes” value ([15]; low dose aspirin (75-325 mg daily), 22 randomized trials) of the same compound?
Answer: 1.3 per 1000 patients

Question: What about the “prevention of non-fatal vascular events” value [16, 20] of the same compound?
Answer: about 30%

Question: And the “prevention of vascular death” value [16, 20]?
Answer: approximately 15%

Question: What about the risk reduction ([16]; patients with unstable angina) of the same compound?
Answer: approximately 50%

Question: And the “reductions in risk of MI” value ([16]; primary prevention)?
Answer: 25%-33

Question: And the “avoidance of a major vascular event” value ([16]; prior MI, stroke, or TIA, approximately 30 months)?
Answer: 36 per 1,000 patients

Question: And the “avoidance of a major vascular event” value ([16]; unstable angina, treated for 6 months)?
Answer: 50 per 1,000 patients

Question: Which “reduction of flushing associated with 1.5 g ER nicotinic acid” value (“reduction of flushing associated” for short) (PGD2 receptor-1 (DP1); 30 mg dose) does the source give for `CS(=O)(=O)c1cc(F)cc2c3c(n(Cc4ccc(Cl)cc4)c12)[C@@H](CC(=O)O)CC3` [laropiprant] here?
Answer: 47%

Question: What about the “reduction of flushing associated” value (PGD2 receptor-1 (DP1); 100 mg dose) of the same compound?
Answer: 67%

Question: What about the “reduction of flushing associated” value (PGD2 receptor-1 (DP1); 300 mg dose) of the same compound?
Answer: 74%

Question: What about the overall discontinuation rate (PGD2 receptor-1 (DP1); 4,700 patients, ER nicotinic acid without vs with added laropiprant) of the same compound?
Answer: 25.3%

Question: And the “rate of moderate/severe flushing” value (PGD2 receptor-1 (DP1); nicotinic acid without vs with added laropiprant (Kush 2009))?
Answer: 24%

Question: What does the source list for `O=C(Oc1ccccc1C(=O)O)c1ccccc1O` [salsalate]?
Answer: fall in fasting glucose levels ([17]; 3.0 g/daily): 9%; decrease in TG concentrations ([17]; 3.0 g): 11%; fall in fasting glucose levels ([17]; 4.5 g daily): 19%; reduction in glycated albumin ([17]; 4.5 g dose): 19%; decrease in TG concentrations ([17]; 4.5 g): 40%; fall in total cholesterol ([17]; in vivo): 12%; mean change in HbA1c levels compared with placebo (HbA1c; 3.0 g daily): −0.36%; mean change in HbA1c levels compared with placebo (HbA1c; 3.5 g daily): −0.34%; mean change in HbA1c levels compared with placebo (HbA1c; 4.0 g daily): −0.49%; reduction of fasting glucose compared with placebo [18]: 13%; reduction of glycated albumin [18]: 17%; reduction of glycemic response after an oral glucose challenge [18]: 20%
